{"source": "ChEMBL document CHEMBL5236632", "about": "“Membrane-Active Nonivamide Derivatives as Effective Broad-Spectrum Antimicrobials: Rational Design, Synthesis, and Biological Evaluation” (J Med Chem, 2022)", "key": {"Staphylococcus aureus [1]": {"tested_on": "Staphylococcus aureus", "test": "Antibacterial activity against Staphylococcus aureus ATCC 29213 assessed as inhibition of visible growth measured after 18 to 24 hrs by broth dilution method", "type": "functional", "details": "time 18-24 hrs"}, "Staphylococcus aureus [2]": {"tested_on": "Staphylococcus aureus", "test": "Antibacterial activity against methicillin-resistant Staphylococcus aureus NCTC 10442 assessed as inhibition of visible growth measured after 18 to 24 hrs by broth dilution method", "type": "functional", "details": "time 18-24 hrs"}, "[3]": {"test": "Haemolytic activity in rabbit red blood cells incubated for 60 mins by k multi-mode reader relative to control", "type": "toxicity, cell-based, Oryctolagus cuniculus, Erythrocyte"}, "[4]": {"test": "Selectivity ratio, HC50 for hemolytic activity in rabbit RBC to MIC for antibacterial activity against methicillin-resistant Staphylococcus aureus N315", "type": "toxicity", "details": "rabbit red blood cells"}, "Acinetobacter baumannii": {"tested_on": "Acinetobacter baumannii", "test": "Antibacterial activity against Acinetobacter baumannii ATCC 17978 assessed as inhibition of visible growth measured after 18 to 24 hrs by broth dilution method", "type": "functional", "details": "time 18-24 hrs"}, "Klebsiella pneumoniae [5]": {"tested_on": "Klebsiella pneumoniae", "test": "Antibacterial activity against Klebsiella pneumoniae ATCC 10031 assessed as inhibition of visible growth measured after 18 to 24 hrs by broth dilution method", "type": "functional", "details": "time 18-24 hrs"}, "[6]": {"test": "Selectivity ratio, HC50 for hemolytic activity in rabbit RBC to MIC for antibacterial activity against Acinetobacter baumannii ATCC 17978", "type": "toxicity", "details": "rabbit red blood cells"}, "[7]": {"test": "Selectivity ratio, HC50 for hemolytic activity in rabbit RBC to MIC for antibacterial activity against Klebsiella pneumoniae ATCC 10031", "type": "toxicity", "details": "rabbit red blood cells"}, "[8]": {"test": "Selectivity ratio, HC50 for hemolytic activity in rabbit RBC to MIC for antibacterial activity against Klebsiella pneumoniae ATCC 14581", "type": "toxicity", "details": "rabbit red blood cells"}, "Staphylococcus aureus [9]": {"tested_on": "Staphylococcus aureus", "test": "Antibacterial activity against Staphylococcus aureus ATCC 29213 assessed as inhibition of visible growth measured after 18 to 24 hrs in presence of 175.5 ug/ml K+ by broth dilution method", "type": "functional", "details": "time 18-24 hrs"}, "Staphylococcus aureus [10]": {"tested_on": "Staphylococcus aureus", "test": "Antibacterial activity against Staphylococcus aureus ATCC 29213 assessed as inhibition of visible growth measured after 18 to 24 hrs in presence of 100 ug/ml Ca2+ by broth dilution method", "type": "functional", "details": "time 18-24 hrs"}, "Staphylococcus aureus [11]": {"tested_on": "Staphylococcus aureus", "test": "Antibacterial activity against Staphylococcus aureus ATCC 29213 assessed as inhibition of visible growth measured after 18 to 24 hrs in presence of 24.3 ug/ml Mg2+ by broth dilution method", "type": "functional", "details": "time 18-24 hrs"}, "Staphylococcus aureus [12]": {"tested_on": "Staphylococcus aureus", "test": "Antibacterial activity against methicillin-resistant Staphylococcus aureus N315 assessed as inhibition of visible growth measured after 18 to 24 hrs in presence of 3220 ug/ml Na+ by broth dilution method", "type": "functional", "details": "time 18-24 hrs"}, "Staphylococcus aureus [13]": {"tested_on": "Staphylococcus aureus", "test": "Antibacterial activity against methicillin-resistant Staphylococcus aureus N315 assessed as inhibition of visible growth measured after 18 to 24 hrs in presence of 24.3 ug/ml Mg2+ by broth dilution method", "type": "functional", "details": "time 18-24 hrs"}, "Staphylococcus aureus [14]": {"tested_on": "Staphylococcus aureus", "test": "Antibacterial activity against methicillin-resistant Staphylococcus aureus NCTC 10442 assessed as inhibition of visible growth measured after 18 to 24 hrs in presence of 175.5 ug/ml K+ by broth dilution method", "type": "functional", "details": "time 18-24 hrs"}, "Escherichia coli [15]": {"tested_on": "Escherichia coli", "test": "Antibacterial activity against Escherichia coli […] assessed as inhibition of visible growth measured after 18 to 24 hrs in presence of 175.5 ug/ml K+ by broth dilution method", "type": "functional", "details": "time 18-24 hrs"}, "Klebsiella pneumoniae [16]": {"tested_on": "Klebsiella pneumoniae", "test": "Antibacterial activity against Klebsiella pneumoniae ATCC 10031 assessed as inhibition of visible growth measured after 18 to 24 hrs in presence of 3220 ug/ml Na+ by broth dilution method", "type": "functional", "details": "time 18-24 hrs"}, "Klebsiella pneumoniae [17]": {"tested_on": "Klebsiella pneumoniae", "test": "Antibacterial activity against Klebsiella pneumoniae ATCC 10031 assessed as inhibition of visible growth measured after 18 to 24 hrs in presence of 100 ug/ml Ca2+ by broth dilution method", "type": "functional", "details": "time 18-24 hrs"}, "Klebsiella pneumoniae [18]": {"tested_on": "Klebsiella pneumoniae", "test": "Antibacterial activity against Klebsiella pneumoniae ATCC 10031 assessed as inhibition of visible growth measured after 18 to 24 hrs in presence of 24.3 ug/ml Mg2+ by broth dilution method", "type": "functional", "details": "time 18-24 hrs"}, "Cell membrane": {"tested_on": "Cell membrane", "test": "Induction of membrane integrity disruption in Escherichia coli ATCC 25922 assessed as increase fluoresence intensity at 4 to 8 times of MIC measured for 60 mins by SYTOX Green uptake assay", "type": "subcellular"}, "Lipopolysaccharide (LPS)": {"tested_on": "Lipopolysaccharide (LPS)", "test": "Displacement of BODIPY-TR-cadaverin from Escherichia coli lipopolysaccharide at MIC concentration incubated for 30 mins by fluorescence based analysis"}, "Staphylococcus aureus [19]": {"tested_on": "Staphylococcus aureus", "test": "Antibacterial activity against Staphylococcus aureus ATCC 29213 assessed as fold increase in MIC measured after 18 to 24 hrs in presence of 512 ug/ml LTA/LPS by broth dilution method", "type": "functional", "details": "time 18-24 hrs"}, "Staphylococcus aureus [20]": {"tested_on": "Staphylococcus aureus", "test": "Inhibition of biofilm formation Staphylococcus aureus ATCC 29213 assessed as decrease in biofilm formation at 0.39 ug/ml measured after 24 hrs by crystal violet staining assay", "type": "functional"}, "Escherichia coli [21]": {"tested_on": "Escherichia coli", "test": "Inhibition of biofilm formation Escherichia coli ATCC 25922 assessed as decrease in biofilm formation at 3.13 ug/ml measured after 24 hrs by crystal violet staining assay", "type": "functional"}, "Staphylococcus aureus [22]": {"tested_on": "Staphylococcus aureus", "test": "Eradication of biofilm in Staphylococcus aureus ATCC 29213 assessed as biofilm viability at 0.20 ug/ml measured after 24 hrs by crystal violet staining assay", "type": "functional", "details": "dose 0.2 µg/ml"}, "Staphylococcus aureus [23]": {"tested_on": "Staphylococcus aureus", "test": "Eradication of biofilm in Staphylococcus aureus ATCC 29213 assessed as biofilm viability at 0.78 ug/ml measured after 24 hrs by crystal violet staining assay", "type": "functional", "details": "dose 0.78 µg/ml"}, "Staphylococcus aureus [24]": {"tested_on": "Staphylococcus aureus", "test": "Eradication of biofilm in Staphylococcus aureus ATCC 29213 assessed as biofilm viability at […] ug/ml measured after 24 hrs by crystal violet staining assay", "type": "functional", "details": "dose […] microg/ml, 1.56 ug/mL"}, "Staphylococcus aureus [25]": {"tested_on": "Staphylococcus aureus", "test": "Eradication of biofilm in Staphylococcus aureus ATCC 29213 assessed as biofilm viability at 3.13 ug/ml measured after 24 hrs by crystal violet staining assay", "type": "functional", "details": "dose 3.13 µg/ml"}, "Staphylococcus aureus [26]": {"tested_on": "Staphylococcus aureus", "test": "Eradication of biofilm in Staphylococcus aureus ATCC 29213 assessed as biofilm viability at 6.25 ug/ml measured after 24 hrs by crystal violet staining assay", "type": "functional", "details": "dose 6.25 µg/ml"}, "Escherichia coli [27]": {"tested_on": "Escherichia coli", "test": "Eradication of biofilm in Escherichia coli ATCC 25922 assessed as biofilm viability at 0.78 ug/ml measured after 24 hrs by crystal violet staining assay", "type": "functional", "details": "dose 0.78 µg/ml"}, "Escherichia coli [28]": {"tested_on": "Escherichia coli", "test": "Eradication of biofilm in Escherichia coli ATCC 25922 assessed as biofilm viability at 25 ug/ml measured after 24 hrs by crystal violet staining assay", "type": "functional", "details": "dose 25 µg/ml"}, "Staphylococcus aureus [29]": {"tested_on": "Staphylococcus aureus", "test": "Drug resistance development in Staphylococcus aureus ATCC 29213 assessed as fold change in MIC measured after 20 passages", "type": "functional"}, "[30]": {"test": "Cytotoxicity against mouse NCTC clone 929 cells assessed as cell viability after 24 hrs incubation byCCK-8 assay", "type": "toxicity, cell-based"}, "[31]": {"test": "Toxicity in C57BL/6 mouse cornea assessed as toxicity at 5 mg/ml treated topically", "type": "tissue-based", "details": "in vivo, topical_or_ocular, route top"}, "[32]": {"test": "Toxicity in C57BL/6 mouse cornea assessed as corneal damage at 5 mg/ml treated topically", "type": "tissue-based", "details": "in vivo, topical_or_ocular, route top"}, "Staphylococcus aureus [33]": {"tested_on": "Staphylococcus aureus", "test": "In vivo antibacterial activity against Staphylococcus aureus ATCC 29213 infected in C57BL/6 mouse keratitis model assessed as reduction in number of viable bacterial colonies in infected cornea at 5 mg/kg topically 4 times per day for 3 consecutive days", "type": "functional", "details": "route top, time 3 day"}}, "note": "The source made the active and inactive calls. The rule behind the calls is not given here.", "data": [{"smiles": "CCCCCCCCC(=O)NCc1ccc(OCCCCCCNC(=N)N)c(OCCCCCCNC(=N)N)c1", "values": [{"measurement": "MIC", "setting": "Staphylococcus aureus [1]", "result": 0.78, "unit": "µg/mL"}, {"measurement": "MIC", "setting": "Staphylococcus aureus [2]", "result": 0.39, "unit": "µg/mL"}, {"measurement": "HC5", "setting": "[3]; erythrocyte, 1 h", "result": 64.3, "unit": "µg/mL"}, {"measurement": "HC50 at 1 h", "setting": "[3]; rabbit red blood cells", "result": 135, "unit": "µg/mL"}, {"measurement": "selectivity ratio", "setting": "[4]", "result": 173}, {"measurement": "MIC", "setting": "Acinetobacter baumannii", "result": 3.12, "unit": "µg/mL"}, {"measurement": "MIC", "setting": "Klebsiella pneumoniae [5]", "result": 1.56, "unit": "µg/mL"}, {"measurement": "selectivity ratio", "setting": "[6]", "result": 21.6}, {"measurement": "selectivity ratio", "setting": "[7]", "result": 21.6}, {"measurement": "selectivity ratio", "setting": "[8]", "result": 21.6}, {"measurement": "MIC", "setting": "Staphylococcus aureus [9]", "result": 0.39, "unit": "µg/mL"}, {"measurement": "MIC", "setting": "Staphylococcus aureus [10]", "result": 0.39, "unit": "µg/mL"}, {"measurement": "MIC", "setting": "Staphylococcus aureus [11]", "result": 0.39, "unit": "µg/mL"}, {"measurement": "MIC", "setting": "Staphylococcus aureus [12]", "result": 0.39, "unit": "µg/mL"}, {"measurement": "MIC", "setting": "Staphylococcus aureus [13]", "result": 0.39, "unit": "µg/mL"}, {"measurement": "MIC", "setting": "Staphylococcus aureus [14]", "result": 0.39, "unit": "µg/mL"}, {"measurement": "MIC", "setting": "Escherichia coli [15]", "result": 1.56, "unit": "µg/mL"}, {"measurement": "MIC", "setting": "Klebsiella pneumoniae [16]", "result": 1.56, "unit": "µg/mL"}, {"measurement": "MIC", "setting": "Klebsiella pneumoniae [17]", "result": 3.12, "unit": "µg/mL"}, {"measurement": "MIC", "setting": "Klebsiella pneumoniae [18]", "result": 1.56, "unit": "µg/mL"}, {"measurement": "Activity", "setting": "Cell membrane", "result": "Active"}, {"measurement": "Activity", "setting": "Lipopolysaccharide (LPS)", "result": 56.4, "unit": "%"}, {"measurement": "fold change (FC)", "setting": "Staphylococcus aureus [19]", "result": 8}, {"measurement": "inhibition at 0.39 µg/mL", "setting": "Staphylococcus aureus [20]", "result": 97.8, "unit": "%"}, {"measurement": "inhibition at 3.13 µg/mL", "setting": "Escherichia coli [21]", "result": 106, "unit": "%"}, {"measurement": "Activity", "setting": "Staphylococcus aureus [22]", "result": 87.32, "unit": "%"}, {"measurement": "Activity", "setting": "Staphylococcus aureus [23]", "result": 64.77, "unit": "%"}, {"measurement": "Activity", "setting": "Staphylococcus aureus [24]", "result": 36.07, "unit": "%"}, {"measurement": "Activity", "setting": "Staphylococcus aureus [25]", "result": 14, "unit": "%"}, {"measurement": "Activity", "setting": "Staphylococcus aureus [26]", "result": 10.9, "unit": "%"}, {"measurement": "Activity", "setting": "Escherichia coli [27]", "result": 90.23, "unit": "%"}, {"measurement": "Activity", "setting": "Escherichia coli [28]", "result": 7.05, "unit": "%"}, {"measurement": "fold change (FC)", "setting": "Staphylococcus aureus [29]", "result": "<4"}, {"measurement": "CC50 at 24 h", "setting": "[30]", "result": 35.2, "unit": "µg/mL"}, {"measurement": "Activity", "setting": "[31]", "result": "Non-Toxic"}, {"measurement": "Activity", "setting": "[32]", "result": "Non-Toxic"}, {"measurement": "Activity", "setting": "Staphylococcus aureus [33]", "result": 6.5, "unit": "log10CFU/ml"}]}]}
